In PMC9647539, “Computational and functional studies of the PI(4,5)P2 binding site of the TRPM3 ion channel reveal interactions with other regulators” (The Journal of Biological Chemistry, 2022):

What was measured:
[1] = target: T1, hTRPM3 or its mutant N991A (Homo sapiens, UniProt Q9HCF6, N1016A); assay: Excised inside-out patch clamp, relative effect of PI(4)P compared to PI(4,5)P2; type: cell-based; settings: 25 μM diC8 PI(4)P vs 25 μM diC8 PI(4,5)P2, 100 μM PregS in pipette
T1 construct: expressed in transfected cells; host or cells: Xenopus laevis oocytes (excised inside-out patches)
T1 sequence (Q9HCF6 1-1325 isoform Q9HCF6-10 N991A): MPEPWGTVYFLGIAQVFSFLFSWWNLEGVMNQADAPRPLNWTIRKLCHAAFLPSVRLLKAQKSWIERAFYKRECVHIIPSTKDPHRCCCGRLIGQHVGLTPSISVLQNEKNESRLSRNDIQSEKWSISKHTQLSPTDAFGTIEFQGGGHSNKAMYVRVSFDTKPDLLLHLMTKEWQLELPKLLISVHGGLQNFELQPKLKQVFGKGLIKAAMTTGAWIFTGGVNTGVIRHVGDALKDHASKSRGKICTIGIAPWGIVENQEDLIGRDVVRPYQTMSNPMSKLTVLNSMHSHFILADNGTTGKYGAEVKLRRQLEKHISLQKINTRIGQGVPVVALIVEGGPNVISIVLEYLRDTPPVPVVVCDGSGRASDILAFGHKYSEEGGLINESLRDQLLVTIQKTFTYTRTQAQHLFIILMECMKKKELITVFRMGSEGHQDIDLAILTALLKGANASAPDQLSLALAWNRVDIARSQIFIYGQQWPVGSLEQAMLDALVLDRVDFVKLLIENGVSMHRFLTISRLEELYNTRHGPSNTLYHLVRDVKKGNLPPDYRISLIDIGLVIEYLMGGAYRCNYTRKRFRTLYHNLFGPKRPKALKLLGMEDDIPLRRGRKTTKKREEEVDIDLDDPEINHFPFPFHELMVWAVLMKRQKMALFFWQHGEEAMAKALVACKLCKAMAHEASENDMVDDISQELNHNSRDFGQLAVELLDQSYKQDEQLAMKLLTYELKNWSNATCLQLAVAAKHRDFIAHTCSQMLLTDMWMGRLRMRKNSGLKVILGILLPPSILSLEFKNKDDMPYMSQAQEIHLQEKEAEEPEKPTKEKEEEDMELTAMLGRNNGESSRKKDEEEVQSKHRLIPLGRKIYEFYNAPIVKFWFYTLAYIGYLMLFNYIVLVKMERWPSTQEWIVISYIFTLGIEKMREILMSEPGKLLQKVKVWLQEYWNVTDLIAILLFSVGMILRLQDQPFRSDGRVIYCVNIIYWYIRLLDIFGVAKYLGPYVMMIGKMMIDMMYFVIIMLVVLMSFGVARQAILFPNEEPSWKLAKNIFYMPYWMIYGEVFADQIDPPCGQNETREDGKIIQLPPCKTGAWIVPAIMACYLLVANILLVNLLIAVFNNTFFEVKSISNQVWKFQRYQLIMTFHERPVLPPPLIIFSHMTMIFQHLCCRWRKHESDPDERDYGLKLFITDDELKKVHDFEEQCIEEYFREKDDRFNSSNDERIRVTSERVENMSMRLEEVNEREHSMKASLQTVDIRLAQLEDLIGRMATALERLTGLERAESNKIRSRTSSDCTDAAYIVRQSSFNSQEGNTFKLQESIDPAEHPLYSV
Description: Oocytes were placed in a recording chamber filled with bath solution, which contained 97 mM KCl, 5 mM EGTA, 10 mM Hepes, pH 7.4. Before starting measurements, the vitelline layer was carefully removed with forceps without damaging the oocyte. Then a giga-ohm seal was formed using a borosilicate glass pipette (World Precision Instruments) with resistance from 0.8 to 1 MΩ. The pipette was filled with a solution containing 97 mM NaCl, 2 mM KCl, 1 mM MgCl2, 5 mM Hepes, and 100 μM PregS at pH 7.4. Currents were measured by an Axopatch 200B amplifier and analyzed with the pClamp 9.0 software. Compounds were dissolved in the bath solution and delivered to the inner side of cell membrane by a custom-made gravity-driven perfusion system. Either 25 μM PI(4,5)P2, 25 μM PI(4)P, or 10 μM AASt PI(4,5)P2 was applied in these experiments to reactivate TRPM3. At the end of every recording, 30 μg/ml Poly-Lys (Poly-K) was applied.

[2] = system: Rat TRPM8 or its mutants; assay: Menthol concentration dependence, TEVC in Xenopus oocytes; type: cell-based; settings: 100 mV; R851A and W682Q mutants
Description: (§1) To express exogenous proteins, RNA was microinjected into oocytes using a nanoliter-injector system (Warner Instruments). RNA was in vitro transcribed from the linearized pGEMSH vectors, which contained the complementary DNA clones for hTRPM3 ([38]) rat TRPM8, human M2 muscarinic (hM2) receptor, or Gβγ subunits by using the mMessage mMachine T7 Transcription Kit (Thermo Fisher Scientific). […] For coexpression of TRPM3 constructs and Gβ1γ2 subunits, 40 ng of TRPM3 was coinjected with 5 ng Gβ1 and 5 ng Gγ2. In the case of coexpressing TRPM3 and hM2 receptors, these two were injected at 1:1 ratio, 40 ng each. […]
(§2) Oocytes were placed in extracellular solution, which contained 97 mM NaCl, 2 mM KCl, 1 mM MgCl2, and 5 mM Hepes, pH 7.4. Currents were measured with a protocol consisting a voltage step from the 0 mV holding potential to −100 mV, followed by a ramp to 100 mV once every 0.5 s with a GeneClamp 500B amplifier and analyzed with the pClamp 9.0 software (Molecular Devices). Currents were recorded by thin wall glass pipettes that contained inner filament and were filled with 1% agarose in 3 M KCl. […] For wortmannin experiments specifically, PregS, or menthol-induced currents were measured, then the same oocyte was incubated with 35 μM wortmannin for 2 h, and currents were measured again using the same protocol. […]

[3] = system: mouse TRPM3α2 (mTRPM3α2) or its mutant N993A; assay: Whole-cell patch clamp with rapamycin-inducible pseudojanin phosphatase in HEK293 cells; type: cell-based; settings: 100 nM rapamycin
Description: Human embryonic kidney 293 cells were purchased from American Type Culture Collection (catalog number: CRL-1573). Human embryonic kidney 293 cells were cultured in minimum essential medium supplemented with 10% fetal bovine serum and 100 IU/ml penicillin plus 100 μg/ml streptomycin. Cells were incubated in 5% CO2 at 37 °C. Cells were tested to confirm that they were not infected by mycoplasma. Cells were used up to 25 passages and then discarded. Cells were transiently transfected with complementary DNA encoding different TRPM3 constructs (200–400 ng) using the Effectene reagent (Qiagen). mTRPM3α2 and its mutant were cloned into the bicistronic pCAGGS/IRES-GFP vector. The components of rapamycin-inducible pseudojanin phosphatases ([40]) were cotransfected with mTRPM3α2 at 1:1 ratio.
After 24 h of transfection, cells were plated on poly-D-lysine–coated 12 mm cover slips. Experiments were performed 48 to 72 h after transfection. […] After formation of gigaohm-resistance seals, the whole cell configuration was established, and currents were recorded by applying a ramp protocol once every 1 s. […] Data were collected and analyzed with the pClamp10.6 (Clampex) acquisition software (Molecular Devices) and further analyzed and plotted with Prism 9 (GraphPad by Dotmatics). […]

[4] = system: Human TRPM3_1325 splice variant or its mutants; assay: Wortmannin inhibition of PregS-induced currents (PI(4,5)P2 depletion), TEVC in Xenopus oocytes; type: cell-based; settings: 35 μM wortmannin 2 h; for inhibition of PregS-induced currents after wortmannin treatment, compared with WT TRPM3: 100 mV; for inhibition of PregS-induced currents after wortmannin treatment, WT vs disease mutants: V990M and P1090Q
Description: Next, we mutated the predicted PI(4,5)P2-interacting residues in TRPM3 and tested the effects of the mutations on sensitivity to inhibition by decreasing PI(4,5)P2 levels. We expressed the WT and mutant channels in Xenopus oocytes and performed two-electrode voltage clamp (TEVC) experiments. We stimulated channel activity with 50 μM PregS and measured current amplitudes, then incubated the oocytes with 35 μM wortmannin for 2 h, and measured PregS-induced currents in the same oocytes (Fig. 3, A and B). Wortmannin at this concentration inhibits phosphatidylinositol 4-kinases and has been used to inhibit the activity of PI(4,5)P2-dependent ion channels ([39]). […] Mutating a PI(4,5)P2-interacting residue is expected to increase inhibition by high concentrations of wortmannin ([39]). […] We also generated two additional mutations in the TRP domain in residues that are not in contact with PI(4,5)P2, K1128Q and R1141Q.
To express exogenous proteins, RNA was microinjected into oocytes using a nanoliter-injector system (Warner Instruments). RNA was in vitro transcribed from the linearized pGEMSH vectors, which contained the complementary DNA clones for hTRPM3 ([38]) rat TRPM8, human M2 muscarinic (hM2) receptor, or Gβγ subunits by using the mMessage mMachine T7 Transcription Kit (Thermo Fisher Scientific). […] For coexpression of TRPM3 constructs and Gβ1γ2 subunits, 40 ng of TRPM3 was coinjected with 5 ng Gβ1 and 5 ng Gγ2. In the case of coexpressing TRPM3 and hM2 receptors, these two were injected at 1:1 ratio, 40 ng each. Oocytes were used for electrophysiological experiments after 48 to 72 h incubation at 16 °C after RNA injection.
Oocytes were placed in extracellular solution, which contained 97 mM NaCl, 2 mM KCl, 1 mM MgCl2, and 5 mM Hepes, pH 7.4. Currents were measured with a protocol consisting a voltage step from the 0 mV holding potential to −100 mV, followed by a ramp to 100 mV once every 0.5 s with a GeneClamp 500B amplifier and analyzed with the pClamp 9.0 software (Molecular Devices). Currents were recorded by thin wall glass pipettes that contained inner filament and were filled with 1% agarose in 3 M KCl. In all TEVC experiments, different concentrations of PregS were applied to activate TRPM3 channels, and various concentrations of menthol were used to trigger responses of TRPM8 channels. The hM2 receptor was activated by 5 μM acetylcholine. For wortmannin experiments specifically, PregS, or menthol-induced currents were measured, then the same oocyte was incubated with 35 μM wortmannin for 2 h, and currents were measured again using the same protocol. In the bar graphs in Figure 3, the individual panels show experiments that were performed on the same day.

[5] = system: Human TRPM3_1325 splice variant or its mutants; parameters: method as in PMID 26123195; settings: 35 nM wortmannin (selectively inhibits PI3K); cited from earlier work
[6] = system: Rat TRPM8 or its mutants; assay: Wortmannin inhibition of menthol-induced currents (PI(4,5)P2 depletion), TEVC in Xenopus oocytes; type: cell-based; settings: 35 μM wortmannin 2 h; 500 μM menthol; 100 mV; R851Q and W682Q mutants
Description: as §1, §2

[7] = system: hTRPM3 V990M; parameters: method as in PMID 32343227; settings: V990M mutant; read-out: EC50 concentration of PregS; cited from earlier work
[8] = system: hTRPM3; parameters: method as in PMID 32343227; settings: hTRPM3 WT; read-out: EC50 concentration of PregS; cited from earlier work
[9] = system: hTRPM3 P1090Q; parameters: method as in PMID 32343227; settings: P1090Q mutant; read-out: EC50 concentration of PregS; cited from earlier work
[10] = system: TRPM3_1325 splice variant or its mutants; assay: PregS concentration dependence, TEVC in Xenopus oocytes; type: cell-based, human; settings: 100 mV; N991A and K992A mutants
Description: as §1, §2

CCCCCCCC(=O)OC[C@H](COP(=O)(O)O[C@H]1[C@H](O)[C@@H](O)[C@H](OP(=O)(O)O)[C@@H](O)[C@H]1O)OC(=O)CCCCCCC [PI(4)P]
relative effect of PI(4)P compared with PI(4,5)P2 [1]: did not change

CC1CCC(C(C)C)C(O)C1 (centres unmarked) [menthol]
menthol dose response, compared with WT TRPM8 [2]: right shifted

CO[C@H]1C[C@@H]2CC[C@@H](C)[C@@](O)(O2)C(=O)C(=O)N2CCCC[C@H]2C(=O)O[C@H]([C@H](C)C[C@@H]2CC[C@@H](O)[C@H](OC)C2)CC(=O)[C@H](C)/C=C(\C)[C@@H](O)[C@@H](OC)C(=O)[C@H](C)C[C@H](C)/C=C/C=C/C=C/1C [rapamycin]
inhibition by rapamycin (PI(4,5)P2 depletion), N993A compared with WT mTRPM3α2 ([3]; currents induced by 25 μM PregS plus 10 μM clotrimazole): significantly larger inhibition
inhibition by rapamycin (PI(4,5)P2 depletion), N993A compared with WT mTRPM3α2 ([3]; currents stimulated with 25 μM PregS): significantly higher inhibition

COC[C@H]1OC(=O)c2coc3c2[C@@]1(C)C1=C(C3=O)[C@@H]2CCC(=O)[C@@]2(C)C[C@H]1OC(C)=O [wortmannin]
inhibition of PregS-induced currents after wortmannin treatment, compared with WT TRPM3 ([4]; 50 μM PregS, R1141Q mutant): small but significant increase
inhibition of PregS-induced currents after wortmannin treatment, compared with WT TRPM3 ([4]; 50 μM PregS, mutants W761F, N991A, K992A and R1131Q): significantly higher inhibition
inhibition of PregS-induced currents after wortmannin treatment, WT vs disease mutants ([4]; 50 μM PregS): inhibited to a similar extent
inhibition of PregS-induced currents after wortmannin treatment, WT vs disease mutants ([4]; PregS at respective EC50 (17, 0.6, 7 μM)): inhibited to a similar extent to WT channels
inhibition of TRPM3 by wortmannin [5]: did not inhibit TRPM3
inhibition of menthol-induced currents by wortmannin, compared with WT TRPM8 [6]: significantly higher level of inhibition

pregnenolone sulfate [PregS]
EC50 [7]: 0.6 µM
EC50 [8]: 17 µM
EC50 [9]: 7 µM
PregS dose response, compared with WT TRPM3 [10]: shifted the PregS dose response to the right
